Assay [1] deals with T1, recombinant PDK-1 (Homo sapiens, UniProt O15530).
T1 construct: purchased Upstate (Lake Placid, N.Y.)
T1 sequence (O15530 1-556): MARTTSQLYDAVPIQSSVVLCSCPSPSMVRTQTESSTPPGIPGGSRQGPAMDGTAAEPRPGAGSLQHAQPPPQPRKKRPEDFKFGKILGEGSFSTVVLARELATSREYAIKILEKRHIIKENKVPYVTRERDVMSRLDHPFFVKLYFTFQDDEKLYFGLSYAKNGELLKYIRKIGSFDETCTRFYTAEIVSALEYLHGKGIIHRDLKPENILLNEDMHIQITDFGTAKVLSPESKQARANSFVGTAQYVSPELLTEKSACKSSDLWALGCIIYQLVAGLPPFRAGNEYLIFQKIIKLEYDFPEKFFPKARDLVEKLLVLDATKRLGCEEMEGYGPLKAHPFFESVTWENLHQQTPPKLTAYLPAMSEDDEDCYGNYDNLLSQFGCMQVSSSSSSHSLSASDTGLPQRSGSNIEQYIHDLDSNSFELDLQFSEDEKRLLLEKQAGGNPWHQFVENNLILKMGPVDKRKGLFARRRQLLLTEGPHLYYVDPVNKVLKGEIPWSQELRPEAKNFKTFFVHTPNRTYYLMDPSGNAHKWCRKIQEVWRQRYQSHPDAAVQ
The assay is described as follows: PDK-1 kinase activity (Upstate kit, cell-free). The format is biochemical.
Protocol: PDK-1 kinase activity This in vitro assay was performed using a PDK-1 kinase assay kit (Upstate, Lake Placid, N.Y.) according to the vendor's instructions. This cell-free assay is based on the ability of recombinant PDK-1, in the presence of DMSO vehicle or the test agent, to activate its downstream kinase serum- and glucocorticoid-regulated kinase (SGK.) which, in turn, phosphorylates the Akt/SGK-specific peptide substrate RPRAATF with [γ-^32]-ATP. […] The reported values represent the means of two independent determinations.

Assay [2] relates to PC-3 cells. Put plainly: PC-3 cell viability analysis (MTT). The format is cell-based, human. How it is done: Cell Culture PC-3 (p53−/−) human androgen-nonresponsive prostate cancer cells were purchased from the American […] (Manassas, Va.). Cells were cultured in RPMI 1640 medium (Gibco, Grand Island, N.Y.) supplemented with 10% fetal bovine serum (FBS; Gibco) at 37° C. in a humidified incubator containing 5% CO2.
Cell viability analysis The effect of 4-[5-(4-methylphenyl)-3-(trifluoromethyl)-1H-pyrazol-1-yl]benzenesulfonamide and its derivatives on PC-3 cell viability was assessed by using the MTT {[3-(4,5-dimethylthiazol-2-yl)-2,5-diphenyl-2H-tetrazolium bromide]} assay in six replicates. Cells were grown in 10% FBS-supplemented RPMI 1640 medium in 96-well, flat bottomed plates for 24 h, and were exposed to various concentrations of compounds 1-36 dissolved in DMSO (final concentration≦0.1%) in 1% serum-containing RPMI 1640 medium for different time intervals. Controls received DMSO vehicle at a concentration equal to that in drug-treated cells. The medium was removed, replaced by 200 μl of 0.5 mg/ml of MTT in 10% FBS-containing RPMI-1640 medium, and cells were incubated in the CO2 incubator at 37° C. for 2 h. Supernatants were removed from the wells, and the reduced MTT dye was solubilized in 200 μL/well DMSO. Absorbance at 570 nm was determined on a plate reader.

Assay [3] has as its system phospho-473Ser Akt. The assay is described as follows: Western blot of Akt and phospho-Akt in PC-3 cells. The format is cell-based, human. The settings on record: 5 μM and above. How it is done: Immunoblotting. The general procedure for the Western blot analysis of Akt and phospho-Akt is described as follows. Cells were washed in PBS, resuspended in SDS sample buffer sonicated by an ultrasonic sonicator for 5 sec, and boiled for 5 min. After brief centrifugation, equivalent protein concentrations from the soluble fractions were resolved in 10% SDS-polyacrylamide gels on a Minigel apparatus, and transferred to a nitrocellulose membrane using a semi-dry transfer cell. The transblotted membrane was washed three times with TBS containing 0.05% Tween 20 (TBST). After blocking with TBST containing 5% nonfat milk for 60 min., the membrane was incubated with the primary antibody at 1:1,000 dilution in TBST-5% low fat milk at 4° C. for 12 h, and was then washed three times with TBST. The membrane was probed with goat anti-rabbit IgG-HRP conjugates (1:1,000) for 1 h at room temperature, and was washed with TBST three times. The immunoblots were visualized by enhanced chemiluminescence.

In assay [4] the test system is Akt. Put plainly: Immunoprecipitated Akt kinase assay, drug-treated PC-3 cells (intracellular Akt activation). The class given is cell-based. The settings on record: Homo sapiens, PC-3 cells treated 2 h, read-out: IC50 for inhibiting intracellular Akt activation. The protocol:
Immunoprecipitated Akt kinase assay Akt immunoprecipitation was carried out according to a modified, published procedure. PC-3 cells were treated with DMSO vehicle or the test agents at the indicated concentrations for 2 h and then lysed at 4° C. for 1 h in buffer A containing 50 mM Tris-HCl, pH 7.5, 1% Triton X-100, 1 mM EDTA, 1 mM EGTA, 50 mM sodium fluoride, 10 mM sodium β-glycerophosphate. 0.1% 2-mercaptoethanol, 0.1 mM phenylmethylsiilfonyl fluoride, and 1 μg/mL each of aprotinin, pepstatin, and leupeptin. Cell lysates were centrifuged at 10,000 g for 5 min, and the supernatant was treated with anti-Akt at 4° C. for 60 min., followed by protein G-agarose beads for additional 60 min. The immunoprecipitate was used to analyze Akt kinase activity by using the Akt/SGK-specific peptide substrate RPRAATF as described above. Values represented the means of two independent determinations.

For assay [5], the system named is immunoprecipitated Akt. Put plainly: Direct inhibition of immunoprecipitated Akt kinase activity. The format is biochemical, human.
The mark [6] stands for this setting: inhibiting recombinant PDK-1 kinase activity, read-out: IC50 PDK-1.
Setting [7] is: inducing apoptotic death in PC-3 cells / PC-3 cell viability, read-out: IC50 PC-3.

Read-outs that look alike come from different tables or passages of the source.

On to `O/N=C/c1ccc(-n2nc(C(F)(F)F)cc2-c2ccc3c(ccc4ccccc43)c2)cc1` [Compound 65, 4-5[-(2-Phenanthrenyl)-3-(trifluoromethyl)-1H-pyraxol-1-yl]-benzaldehyde oxime], for which the IC50 in assay [1] is 25 µM.
For the molecule “5-(2-Phenanthrenyl)-3-(trifluoromethyl)-4-(1H-tetrazol-5-ylphenyl)-1H-pyrazole [Compound 64]”, the results for the IC50 in assay [1] (setting [6]) and in assay [2] (setting [7]) were 52 µM and 32 µM, respectively.
“4-[5-(4′triflouromethyl[1,1′-biphenyl]-4-yl)-3-(trifluoromethyl)-1H-1-yl]benzenesulfonamide [Compound 51]”: the IC50 in assay [1] (setting [6]) is 18 µM; in assay [2] (setting [7]), 8 µM.
In the same order, the values of “5-(2-Phenanthrenyl)-3-(trifluoromethyl)-4-(1H-tetrazol-5-ylmethylphenyl)-1H-pyrazole [Compound 69]” are 45 µM and 27 µM.
In the case of `NS(=O)(=O)c1ccc(-n2nc(C(F)(F)F)cc2-c2ccc3c(ccc4ccccc43)c2)cc1` [Compound 59, 4-[5-(2-phenanthrenyl)-3-(trifluoromethyl)-1H-1-yl]benzenesulfonamide], the IC50 in assay [2] (Homo sapiens, PC-3, 24 h, 1% FBS-containing RPMI 1640 medium, read-out: dose required to induce 50% PC-3 cell death) was found to be 5 µM; in assay [2] (Homo sapiens, inducing apoptotic death in PC-3 cells / PC-3 cell viability, read-out: IC50 PC-3), 5 µM; in assay [4], 5 µM. In assay [3], the “Akt dephosphorylation (Western blot)” value is on record as “significant Akt dephosphorylation”. The “direct inhibitory effect on immunoprecipitated Akt activity” value in assay [5] is given as “Neither compound 59 nor other the other compounds displayed a direct inhibitory effect”.

For the origin of these results see patent publication US8541460B2, “PDK-1/Akt signaling inhibitors” (The Ohio State University, priority 2003, dated 2013).
